Measured values: patent publication US6562841B1, “Methods and compositions for repelling arthropods” (The United States of America as represented by the …, priority 2000, dated 2003)
Where two headings read alike, the source gives them in different places.

Assays:
[1] = test system: many species of blood-sucking arthropods; conditions: field and laboratory studies, literature, cited from earlier work
Aedes aegypti (Linnaeus) = experiment: Repellent bioassay on human skin, K & D modules, biting frequency of Aedes aegypti; type: in vivo; conditions: for repellent activity, comparison in words: pair-wise comparison alpha=0.05
Aedes albopictus = experiment: Repellent bioassay on human skin, K & D modules, Aedes albopictus; type: in vivo
Phlebotomus papatasi = experiment: Repellent bioassay on human skin, K & D modules, Phlebotomus papatasi; type: in vivo
Anopheles stephensi = experiment: Repellent bioassay on human skin, K & D modules, Anopheles stephensi; type: in vivo

CC1CCCCN1C(=O)C1CC=CCC1 (racemic) [compound 220, 1-(3-cyclohexen-1-ylcarbonyl)-2-methylpiperidine, reference compound]
effectiveness in reducing bites compared with deet [1]: more or as effective as the commonly used arthropod repellent deet | effectiveness in reducing bites compared with deet ([1]; listed as 220 racemate): more effective than deet | proportion biting value (Aedes aegypti (Linnaeus); Ae. aegypti females on treated human skin, 4.95 μg/cm^2 skin, 2 min exposure): 0.45 | repellent activity, comparison in words (Aedes aegypti (Linnaeus); Ae. aegypti, 4.95 μg/cm^2 skin): not significantly different from one another

C[C@H]1CCCCN1C(=O)[C@@H]1CC=CCC1 (single isomer, unassigned) [(1S,2′S)]
times more repellent than the other stereoisomers (Aedes aegypti (Linnaeus); Ae. aegypti, 4.95 μg/cm^2 skin): 2.8-3.1 times | times more effective in suppressing bites than the racemate (Aedes aegypti (Linnaeus); Ae. aegypti, equal dose): 2.5 times | times more effective in suppressing bites than the racemate (Aedes albopictus): 4 times | repellent effectiveness, comparison in words (Phlebotomus papatasi): most effective in repelling bites | repellent effectiveness, comparison in words (Anopheles stephensi): most effective in repelling bites

CC1CCCCN1C(=O)C1CC=CCC1 [(1R,2′R), 1-(3-cyclohexen-1-ylcarbonyl)-2-methylpiperidine]
repellent activity, comparison in words (Aedes aegypti (Linnaeus); Ae. aegypti, 4.95 μg/cm^2 skin, listed as (1R,2′R)-220): significantly less effective as a repellent

CC1CCCCN1C(=O)C1CC=CCC1 [(1R,2′S), 1-(3-cyclohexen-1-ylcarbonyl)-2-methylpiperidine]
times more repellent than the other stereoisomers (Aedes aegypti (Linnaeus); Ae. aegypti, 4.95 μg/cm^2 skin): 1.6-1.8 times | repellent effectiveness, comparison in words (Aedes albopictus): more effective than the (1S,2′R) and (1R,2′R) stereoisomers

CC1CCCCN1C(=O)C1CC=CCC1 [(1S,2′R), 1-(3-cyclohexen-1-ylcarbonyl)-2-methylpiperidine]
repellent activity, comparison in words (Aedes aegypti (Linnaeus); Ae. aegypti, 4.95 μg/cm^2 skin): not significantly different from one another
